US6310091A, “Fungicidal saponin, CAY-1, and isolation thereof from Capsium species fruit” (The United States of America as represented by the …, priority 2000, dated 2001)
Several values for one entry are separate records, joined by “and”; a condition that tells them apart may be missing. Equal values may be shown once. Read-outs that look alike come from different tables or passages of the source.

Test system: Aspergillus flavus
Experiment: Time course study against germinating conidia of A. flavus
Type: cell-based
Conditions: for activity at 2 µM / activity at 3 µM / activity at 4 µM / activity at 5 µM / activity at 7.5 µM / activity at 10 µM: read-out: Percent of Mean Control
Procedure: 1. Filamentous fungi. Filamentous fungi used in bioassays included Aspergillus flavus, A. fumigatus, A. niger, A. parasiticus and Fusarium oxysporum. The fungicidal properties of CAY-1 for the nongerminated and germinating conidia of these fungi were determined separately as described by De Lucca et al. [Med. Mycol., 36:291-298 (1998)] and De Lucca et al. [Antimicrob. Agents Chemother. 43:371-373 (1999)]. […] Two separate experiments were conducted in each medium (n=8 per medium).
A suspension of the aforementioned fungi were prepared separately in the appropriate medium. Conidia (10^4 conidia/ml) were used immediately for the nongerminated conidial assays while conidia (10^5 conidia/ml) were incubated for 7.5 hours at 30° C. to obtain germinating conidia. Serial dilutions of CAY-1 were prepared in the appropriate medium (totaling 225 μl) to which was added 25 μl of the conidial suspensions. The control consisted of 225 μl of medium and 25 μl of the conidial suspension. After mixing, the samples were incubated for 30 min (30° C.). Samples were then spread on potato dextrose agar plates which were incubated at 30° C. for 24 hours. Colonies were then enumerated.
4. Time course study. The effect of time and concentration on the activity of CAY-1 was determined against the germinating conidia of A. flavus in 1% (w/v) PBD. Bioassays were performed twice as described above (n=8).
Statistical analyses. ANOVA analyses on ranks for nonparametric data were performed for the bioassays described in this example.

In the case of `CC1CCC2(OC1)OC1CC3C4CCC5CC(OC6OC(CO)C(OC7OC(CO)C(O)C(OC8OC(CO)C(O)C(OC9OC(CO)C(O)C(O)C9O)C8O)C7OC7OC(CO)C(O)C(O)C7O)C(O)C6O)C(O)CC5(C)C4CCC3(C)C1C2C` (centres unmarked) [CAY-1], the “Mean No. of Colonies” value (2.5 min, 1% PDB, 2.0 μM) is reported as 184.4, the “Mean No. of Colonies” value (2.5 min, 1% PDB, 3.0 μM) is reported as 174.3 and the “Mean No. of Colonies” value (2.5 min, 1% PDB, 4.0 μM) is reported as 170.5. For the same molecule, the “Mean No. of Colonies” value (2.5 min, 1% PDB, 5.0 μM) was 170.0, the “Mean No. of Colonies” value (2.5 min, 1% PDB, 7.5 μM) was 160.8 and the “Mean No. of Colonies” value (2.5 min, 1% PDB, 10.0 μM) was 154.8. For the same molecule, the “Mean No. of Colonies” value (5.0 min, 1% PDB, 2.0 μM) was 182.3, the “Mean No. of Colonies” value (5.0 min, 1% PDB, 3.0 μM) was 190.1 and the “Mean No. of Colonies” value (5.0 min, 1% PDB, 4.0 μM) was 171.3. The “Mean No. of Colonies” value (5.0 min, 1% PDB, 5.0 μM) was 172.4, the “Mean No. of Colonies” value (5.0 min, 1% PDB, 7.5 μM) was 163.3 and the “Mean No. of Colonies” value (5.0 min, 1% PDB, 10.0 μM) was 89.8. The “Mean No. of Colonies” value (10.0 min, 1% PDB, 2.0 μM) was 135.5, the “Mean No. of Colonies” value (10.0 min, 1% PDB, 3.0 μM) was 110.8 and the “Mean No. of Colonies” value (10.0 min, 1% PDB, 4.0 μM) was 119.3. For the same molecule, the “Mean No. of Colonies” value (10.0 min, 1% PDB, 5.0 μM) was 84.3, the “Mean No. of Colonies” value (10.0 min, 1% PDB, 7.5 μM) was 32.8 and the “Mean No. of Colonies” value (10.0 min, 1% PDB, 10.0 μM) was 24.9. The “Mean No. of Colonies” value (15 min, 1% PDB, 2.0 μM) was 126.0, the “Mean No. of Colonies” value (15 min, 1% PDB, 3.0 μM) was 131.9 and the “Mean No. of Colonies” value (15 min, 1% PDB, 4.0 μM) was 109.1. For the same molecule, the “Mean No. of Colonies” value (15 min, 1% PDB, 5.0 μM) was 77.6, the “Mean No. of Colonies” value (15 min, 1% PDB, 7.5 μM) was 28.1 and the “Mean No. of Colonies” value (15 min, 1% PDB, 10.0 μM) was 4.4. The “Mean No. of Colonies” value (20 min, 1% PDB, 2.0 μM) was 227.4, the “Mean No. of Colonies” value (20 min, 1% PDB, 3.0 μM) was 200.0 and the “Mean No. of Colonies” value (20 min, 1% PDB, 4.0 μM) was 156.4. The “Mean No. of Colonies” value (20 min, 1% PDB, 5.0 μM) was 95.5, the “Mean No. of Colonies” value (20 min, 1% PDB, 7.5 μM) was 19.8 and the “Mean No. of Colonies” value (20 min, 1% PDB, 10.0 μM) was 7.6. For the same molecule, the “Mean No. of Colonies” value (30 min, 1% PDB, 2.0 μM) was 139.8, the “Mean No. of Colonies” value (30 min, 1% PDB, 3.0 μM) was 115.4 and the “Mean No. of Colonies” value (30 min, 1% PDB, 4.0 μM) was 84.1. For the same molecule, the “Mean No. of Colonies” value (30 min, 1% PDB, 5.0 μM) was 54.2, the “Mean No. of Colonies” value (30 min, 1% PDB, 7.5 μM) was 17.1 and the “Mean No. of Colonies” value (30 min, 1% PDB, 10.0 μM) was 13.1. For the same molecule, the activity at 2 µM (Aspergillus flavus, 2.5 min, 1% PDB, 2.0 μM) was 110%, the activity at 3 µM (Aspergillus flavus, 2.5 min, 1% PDB, 3.0 μM) was 104% and the activity at 4 µM (Aspergillus flavus, 2.5 min, 1% PDB, 4.0 μM) was 102%. For the same molecule, the activity at 5 µM (Aspergillus flavus, 2.5 min, 1% PDB, 5.0 μM) was 101%, the activity at 7.5 µM (Aspergillus flavus, 2.5 min, 1% PDB, 7.5 μM) was 95.8% and the activity at 10 µM (Aspergillus flavus, 2.5 min, 1% PDB, 10.0 μM) was 92.3%. For the same molecule, the minimal effective concentration (Aspergillus flavus, 5 min, read-out: lowest concentration with significant lethality) was 7.5 µM and 9.3 µg/mL, the activity at 2 µM (Aspergillus flavus, 5 min, 1% PDB, 2.0 μM) was 89.2% and the activity at 3 µM (Aspergillus flavus, 5 min, 1% PDB, 3.0 μM) was 93%. For the same molecule, the activity at 4 µM (Aspergillus flavus, 5 min, 1% PDB, 4.0 μM) was 83.8%, the activity at 5 µM (Aspergillus flavus, 5 min, 1% PDB, 5.0 μM) was 84.3% and the activity at 7.5 µM (Aspergillus flavus, 5 min, 1% PDB, 7.5 μM) was 79.9%. For the same molecule, the activity at 10 µM (Aspergillus flavus, 5 min, 1% PDB, 10.0 μM) was 43.8%, the activity at 2 µM (Aspergillus flavus, 10 min, 1% PDB, 2.0 μM) was 102% and the activity at 3 µM (Aspergillus flavus, 10 min, 1% PDB, 3.0 μM) was 83.3%. The activity at 4 µM (Aspergillus flavus, 10 min, 1% PDB, 4.0 μM) was 89.7%, the activity at 5 µM (Aspergillus flavus, 10 min, 1% PDB, 5.0 μM) was 63.4% and the activity at 7.5 µM (Aspergillus flavus, 10 min, 1% PDB, 7.5 μM) was 24.7%. For the same molecule, the activity at 10 µM (Aspergillus flavus, 10 min, 1% PDB, 10.0 μM) was 18.7%, the minimal effective concentration (Aspergillus flavus, 10 min, 10 minutes post-incubation, 1% PDB, p=0.0001, read-out: concentration required for significant activity) was 5 µM and 6.2 µg/mL and the IC95 (Aspergillus flavus, 0.25 h, read-out: LD95) was 10 µM and 12.4 µg/mL. The activity at 2 µM (Aspergillus flavus, 0.25 h, 15 min, 1% PDB, 2.0 μM) was 98.4%, the activity at 3 µM (Aspergillus flavus, 0.25 h, 15 min, 1% PDB, 3.0 μM) was 103% and the activity at 4 µM (Aspergillus flavus, 0.25 h, 15 min, 1% PDB, 4.0 μM) was 85.2%. For the same molecule, the activity at 5 µM (Aspergillus flavus, 0.25 h, 15 min, 1% PDB, 5.0 μM) was 60.6%, the activity at 7.5 µM (Aspergillus flavus, 0.25 h, 15 min, 1% PDB, 7.5 μM) was 22% and the activity at 10 µM (Aspergillus flavus, 0.25 h, 15 min, 1% PDB, 10.0 μM) was 3.4%. For the same molecule, the activity at 2 µM (Aspergillus flavus, 20 min, 1% PDB, 2.0 μM) was 98.9% and the activity at 3 µM (Aspergillus flavus, 20 min, 1% PDB, 3.0 μM) was 87%.
